Assay results as given in patent US9597274B2, “Peptides and their use in the treatment of skin” (Avon Products, Inc., priority 2015, dated 2017).

Columns and labels:
[1] = system: Human dermal fibroblast cells; assay: Pro-collagen I secretion into the media (HTRF human pro-collagen I kit) after 48 h peptide treatment; assay type: cell-based; conditions: percent change relative to vehicle control
Procedure: (§1) Human dermal fibroblast cells were grown in a 96 well plate in DMEM media (available from Corning, N.Y.) supplemented with 10% Fetal Bovine Serum (FBS) and L-glutamine (0.07×10^5 cells/plate). After reaching about 75% confluence, cells were transferred into DMEM media without FBS and incubated for 4-6 hours. Next, cells were treated with a peptide at 0.00001%, 0.0001%, 0.001% final concentration in DMEM media without FBS for 48 h. After treatment, the media were collected and cell viability was measured using MTT. The amount of collagen secreted was tested in the media using HTRF human pro-collagen I kit (available from Cisbio Inc., Bedford, Mass.). The amount of secreted Hyaluronic Acid (HA) was tested in the media using HA Elisa kit (available from Corgenix, Broomfield, Colo.).
(§2) The results are summarized in Table 12 below as percent change of pro-collagen I and/or HA production relative to vehicle control (peptide concentrations provided in parentheses) using the following keys: […]

[2] = system: Human dermal fibroblast cells; assay: Secreted hyaluronic acid (HA) in the media (HA Elisa kit) after 48 h peptide treatment; assay type: cell-based; conditions: percent change relative to vehicle control
Procedure: as §1, §2

[3] = peptide tested at 0.00001%, 0.0001%, 0.001%, concentration not given

GDALQPE (listed as Homo sapiens)
Increase in Pro-Collagen I Production [1, 3]: 0 (0: <10%)
Increase in HA Production [2, 3]: 0 (0: <20%)

MVV (listed as Homo sapiens)
Increase in Pro-Collagen I Production [1, 3]: 0 (0: <10%)
Increase in HA Production ([2]; peptide concentration 0.0001%): +(0.0001%) (+: 20-50%)

LRLK (listed as Homo sapiens)
Increase in Pro-Collagen I Production [1, 3]: 0 (0: <10%)
Increase in HA Production ([2]; peptide concentration 0.001%): +(0.001%) (+: 20-50%)

LENTKRS (listed as Homo sapiens)
Increase in Pro-Collagen I Production [1, 3]: 0 (0: <10%)
Increase in HA Production [2, 3]: 0 (0: <20%)

QILSKLRL (listed as Homo sapiens)
Increase in Pro-Collagen I Production ([1]; peptide concentration 0.001%): +(0.001%) (+: 10-30%)

QPED (listed as Homo sapiens)
Increase in Pro-Collagen I Production [1, 3]: 0 (0: <10%)
Increase in HA Production [2, 3]: 0 (0: <20%)
